The source made the active and inactive calls.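 The calls were made as follows: active = in confirmatory dose-response testing, peak deubiquitinase inhibition of 30% or more; inactive = the rest.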 Bounds are passed on as bounds.

By IC50 is commonly meant the concentration needed to halve the response being measured.

In this test the target is Ubiquitin carboxyl-terminal hydrolase 28 (Homo sapiens) (UniProt Q96RU2). As to the kind of experiment: Concentration-response biochemical assay confirming initial hits as inhibitors of ubiquitin-specific protease 28 (AID 1645866). Particulars: purified USP28, ubiquitin-rhodamine fluorescence, 30 min.
Ubiquitin carboxyl-terminal hydrolase 28 (Homo sapiens), sequence (Q96RU2 whole entry, looked up): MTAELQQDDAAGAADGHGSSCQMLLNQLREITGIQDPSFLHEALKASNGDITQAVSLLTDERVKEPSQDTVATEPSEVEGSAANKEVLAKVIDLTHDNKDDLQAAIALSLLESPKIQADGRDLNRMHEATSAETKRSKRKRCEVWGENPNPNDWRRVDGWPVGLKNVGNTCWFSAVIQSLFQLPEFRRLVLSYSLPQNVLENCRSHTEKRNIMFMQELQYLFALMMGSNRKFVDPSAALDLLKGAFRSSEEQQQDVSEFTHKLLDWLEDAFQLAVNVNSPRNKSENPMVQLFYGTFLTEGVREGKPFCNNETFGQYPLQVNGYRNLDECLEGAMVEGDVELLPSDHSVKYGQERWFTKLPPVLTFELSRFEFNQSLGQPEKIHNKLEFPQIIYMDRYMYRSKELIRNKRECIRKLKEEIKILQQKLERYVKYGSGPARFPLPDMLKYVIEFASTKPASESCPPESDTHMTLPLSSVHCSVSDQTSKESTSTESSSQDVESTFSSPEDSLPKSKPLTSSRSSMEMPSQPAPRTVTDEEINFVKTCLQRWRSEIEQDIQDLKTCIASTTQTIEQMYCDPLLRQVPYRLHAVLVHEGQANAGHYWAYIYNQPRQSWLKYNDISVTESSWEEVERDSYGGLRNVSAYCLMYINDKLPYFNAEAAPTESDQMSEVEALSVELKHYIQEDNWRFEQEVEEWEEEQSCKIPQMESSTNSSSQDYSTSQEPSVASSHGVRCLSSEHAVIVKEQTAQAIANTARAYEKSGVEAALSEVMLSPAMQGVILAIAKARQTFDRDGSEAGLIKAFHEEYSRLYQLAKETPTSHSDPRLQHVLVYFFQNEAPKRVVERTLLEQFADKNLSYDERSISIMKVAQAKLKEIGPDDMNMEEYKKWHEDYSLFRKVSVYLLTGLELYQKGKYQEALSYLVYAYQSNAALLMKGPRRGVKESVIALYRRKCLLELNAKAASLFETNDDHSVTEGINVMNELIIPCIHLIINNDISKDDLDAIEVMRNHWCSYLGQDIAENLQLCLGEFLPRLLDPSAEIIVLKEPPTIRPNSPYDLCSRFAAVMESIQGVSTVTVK

As to `COc1cccc(NC(=O)CCc2c(C)nn(-c3cc(N4CCCCC4)ncn3)c2C)c1`, the IC50 is 7.17 µM.

As for `COc1ccc(-c2cc(-c3ccccc3)nc(SCC(N)=O)c2C#N)cc1OC`, the IC50 is 1.97 µM.

With `O=C(Nc1cc(Cl)ccc1-n1cncn1)c1ccc(S(=O)(=O)N2CCCC2)cc1`, the IC50 was > 50 µM (inactive). For `O=C(COc1nsnc1N1CCOCC1)Nc1ccccc1F`, the IC50 was > 50 µM (inactive). Consider `O=[N+]([O-])c1cccc(-c2noc(CSc3ccccc3)n2)c1`, for which the IC50 was 3.72 µM. For the compound `COc1ccc(NC(=O)CNC(=O)c2ccc3nc(-n4cccc4)sc3c2)cc1`, the IC50 is 3.11 µM. For the compound `O=C(Nc1nc2c(s1)COCC2)c1cc(-c2ccco2)[nH]n1`, the IC50 was > 50 µM (inactive). `Cc1ccc(-c2ncc(C(=O)NCc3cccc(C)c3)c(-c3ccncc3)n2)cc1`: the IC50 was > 50 µM (inactive). The figure for `Cc1ccccc1Cn1ccc(NC(=O)c2noc(C)c2[N+](=O)[O-])n1` is 6.9 µM. As for `CCOC(=O)c1ccc(NC(=O)Cn2c(=O)n(CC(=O)NCc3ccco3)c(=O)c3ccccc32)cc1`, the IC50 was 2.31 µM.

As to `NC(=O)C1(N2CCCCC2)CCN(C(=O)c2[nH]nc3c2CCc2ccccc2-3)CC1`, the IC50 was > 50 µM (inactive).

As to `CC(c1ccccc1)c1nc(-c2ccc(=O)[nH]c2)no1` (stereo not drawn), the IC50 was 3.78 µM. For `Cn1c(C(=O)NCc2ccccn2)cc2c(=O)[nH]c3ccccc3c21`, the IC50 is > 50 µM (inactive). The figure for `COc1ccc(CN(C(=O)c2cc(-c3ccc(C)cc3)on2)C2CCS(=O)(=O)C2)cc1` (stereo not drawn) is 38 µM. For the compound `Cn1c(=O)c2c(ncn2CC(=O)NC2CCCc3ccccc32)n(C)c1=O` (stereo not drawn), the IC50 is > 50 µM (inactive). Consider `CC(CCc1ccccc1)NC(=O)C(=O)c1cn(CC(=O)N2CCOCC2)c2ccccc12` (stereo not drawn), for which the IC50 is > 50 µM (inactive). Consider `Cn1c(-c2nnc(SCC(=O)NCCc3ccccc3)o2)cc2ccccc21`, for which the IC50 was 23.7 µM. Regarding `Clc1cc2nc(N3CCN(c4ccccn4)CC3)c3nncn3c2cc1Cl`, the IC50 was 2.3 µM. `COc1ccc(-c2cc(C(=O)NC3CCCCCC3)[nH]n2)cc1S(=O)(=O)N(C)C`: the IC50 was 23.6 µM. Consider `CC(=O)c1cccc(NC(=O)c2ccc(N3CCCCC3)nn2)c1`, for which the IC50 is 32.4 µM. Turning to `O=C(Nc1cc(F)c2nc(N3CCOCC3)ccc2c1)C1CC1`, the IC50 is 44.2 µM.

Regarding `CCc1nc(N2CCCC2=O)sc1C(=O)Nc1cccc(C(C)=O)c1`, the IC50 was 17.1 µM. Regarding `COc1c2c(cc3cc(O)c4c(=O)cc(C)oc4c13)CCC2=O`, the IC50 is 28.8 µM. On to `C[C@@H]1O[C@@H](O[C@H]2[C@H](O[C@H]3[C@H](O[C@H]4CC[C@@]5(C)[C@@H](CC[C@]6(C)[C@@H]5CC=C5[C@@H]7CC(C)(C)CC(=O)[C@]7(C)CC[C@]56C)[C@@]4(C)CO)O[C@H](C(=O)O)[C@@H](O)[C@@H]3O)OC[C@@H](O)[C@@H]2O)[C@H](O)[C@H](O)[C@H]1O`, for which the IC50 was 48.4 µM. In the case of `Cc1c(CC(=O)Nc2nn[nH]n2)c(=O)oc2cc3c(cc12)CCC1(CCCCC1)O3`, the IC50 was > 50 µM (inactive). As to `Cc1ccccc1NC(=O)c1nc(-c2cn(Cc3ccc(F)cc3)nn2)no1`, the IC50 was 5.88 µM. With `COc1ccc(OC)c(C2CC(=O)Nc3n[nH]c(-c4ccccc4)c32)c1` (stereo not drawn), the half-inhibitory concentration (IC50) is 28.5 µM. On to `CC(C)(C)c1ccc(Cn2nnc3c(=O)[nH]c(C4CCN(S(=O)(=O)c5ccc(S(=O)(=O)NC6CC6)cc5)CC4)nc32)cc1`, for which the IC50 is 30.9 µM.

Take `CN(C(=O)c1ccncc1)[C@H]1CC[C@@]2(C)C[C@H](c3ccccc3)C[C@](C)(O2)[C@@H]1O`: the IC50 was > 50 µM (inactive).

`COc1ccc(-c2cc3nc(C)cc(Nc4ccc(F)cc4)n3n2)cc1OC`: the IC50 was > 50 µM (inactive). The figure for `N#Cc1ccccc1OCc1csc(-c2ccccc2)n1` is 5.97 µM; for `CSc1nc2ncc3c(=O)n(CCc4ccccc4)ccc3n2n1` it is > 50 µM (inactive).

As to `O=C(NCc1nc2ccccc2[nH]1)c1cccc(S(=O)(=O)N2CCc3ccccc32)c1`, the IC50 is 31.4 µM.

The values above are taken from PubChem BioAssay AID1645866 (Buhrlage Lab, Dana-Farber Cancer Institute and Novartis …, 2021).
